Laboratory results from patent US20100298448A1, “PENETRATION ENHANCERS FOR FUNGICIDAL AGENTS” (priority 2006, published 2010).

Conditions: apple tree (Golden Delicious variety)
Method: In this test, the penetration of active substances through enzymatically isolated cuticles of apple tree leaves was measured.
Leaves which were cut off in the stage of full development of apple trees of the Golden Delicious variety were used. The isolation of the cuticles was effected in a manner such that • first leaf discs marked on the underside with dye and punched out were filled by means of vacuum infiltration with a pectinase solution (0.2 to 2% strength) buffered to a pH between 3 and 4, sodium azide was then added and • the leaf discs thus treated were allowed to stand until disintegration of the original leaf structure and detachment of the noncellular cuticle.
Thereafter, only those cuticles of the upper sides of the leaves which were free of staltoa and hairs were further used. They were washed several times alternately with water and a buffer solution at pH 7. The clean cuticles obtained were finally drawn onto small Teflon plates and smoothed and dried with a gentle air jet.
In the next step, the cuticle membranes thus obtained were placed in stainless steel diffusion cells (=transport chambers) for membrane transport investigations. For this purpose, the cuticles were placed by means of forceps centrally on the silicone grease-coated edges of the diffusion cells and closed with a likewise greased ring. The arrangement was chosen so that the morphological outside of the cuticles faced outwards, i.e. towards the air, while the original inside faced the interior of the diffusion cell. The diffusion cells were filled with water or with a mixture of water and solvent. […]
After the application of the spray liquors, in each case the water was allowed to evaporate, and in each case the chambers were then turned around and were placed in thermostated trays, air having a defined temperature and atmospheric humidity being blown onto the outside of the cuticle. […] The active substance penetration was measured with radioactively marked active substance.

## CC(C)(C)C(O)(CCc1ccc(Cl)cc1)Cn1cncn1 (stereo not drawn) [Tebuconazole, tebuconazole]
  Penetration* after 5 hours [%]: 2%
  Penetration* after 1 day [%]: 8%
  Penetration** after 2 days [%]: 15%
